Data: patent publication US20240398811A1, “PRC2 INHIBITORS FOR USE IN TREATING BLOOD DISORDERS” (ORIC Pharmaceuticals, Inc., priority 2021, published 2024)

Molecular target: purified human, His-tagged PRC2 complex (Homo sapiens (Human), UniProt O75530)
Assay: Hot Spot HMT assay, inhibition of PRC2 enzymatic activity
Assay type: biochemical
Conditions: 10 nM PRC2 complex, 1 μM 3H-SAM, core histone H3, 10-point dose-response
Procedure, shortened: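 Five-subunit PRC2 complex (EZH2, EED, SUZ12, AEBP2, RbAp48; 10 nM) preincubated 20 min at 30° C with compound (top 1.0 μM) and 0.05 mg/ml core histone H3 in Tris-HCl, 1% DMSO. Started with 1 μM [3H]SAM, 1 hr at 30° C; tritiated H3 measured by filter binding and scintillation.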

Chain of purified human, His-tagged PRC2 complex (O75530 whole entry): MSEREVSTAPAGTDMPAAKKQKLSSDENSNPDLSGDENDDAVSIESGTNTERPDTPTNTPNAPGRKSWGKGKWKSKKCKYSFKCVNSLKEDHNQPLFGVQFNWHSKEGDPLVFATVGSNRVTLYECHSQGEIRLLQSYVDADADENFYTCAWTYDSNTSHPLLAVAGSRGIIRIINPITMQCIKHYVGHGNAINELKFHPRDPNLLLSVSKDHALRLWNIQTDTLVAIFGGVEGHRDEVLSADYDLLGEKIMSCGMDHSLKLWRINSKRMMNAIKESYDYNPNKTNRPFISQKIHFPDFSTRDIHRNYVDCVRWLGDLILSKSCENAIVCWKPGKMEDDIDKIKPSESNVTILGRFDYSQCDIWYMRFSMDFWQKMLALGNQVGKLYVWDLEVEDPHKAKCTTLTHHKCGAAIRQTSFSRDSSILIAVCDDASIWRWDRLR
Chain of purified human, His-tagged PRC2 complex (Q15910 whole entry partner): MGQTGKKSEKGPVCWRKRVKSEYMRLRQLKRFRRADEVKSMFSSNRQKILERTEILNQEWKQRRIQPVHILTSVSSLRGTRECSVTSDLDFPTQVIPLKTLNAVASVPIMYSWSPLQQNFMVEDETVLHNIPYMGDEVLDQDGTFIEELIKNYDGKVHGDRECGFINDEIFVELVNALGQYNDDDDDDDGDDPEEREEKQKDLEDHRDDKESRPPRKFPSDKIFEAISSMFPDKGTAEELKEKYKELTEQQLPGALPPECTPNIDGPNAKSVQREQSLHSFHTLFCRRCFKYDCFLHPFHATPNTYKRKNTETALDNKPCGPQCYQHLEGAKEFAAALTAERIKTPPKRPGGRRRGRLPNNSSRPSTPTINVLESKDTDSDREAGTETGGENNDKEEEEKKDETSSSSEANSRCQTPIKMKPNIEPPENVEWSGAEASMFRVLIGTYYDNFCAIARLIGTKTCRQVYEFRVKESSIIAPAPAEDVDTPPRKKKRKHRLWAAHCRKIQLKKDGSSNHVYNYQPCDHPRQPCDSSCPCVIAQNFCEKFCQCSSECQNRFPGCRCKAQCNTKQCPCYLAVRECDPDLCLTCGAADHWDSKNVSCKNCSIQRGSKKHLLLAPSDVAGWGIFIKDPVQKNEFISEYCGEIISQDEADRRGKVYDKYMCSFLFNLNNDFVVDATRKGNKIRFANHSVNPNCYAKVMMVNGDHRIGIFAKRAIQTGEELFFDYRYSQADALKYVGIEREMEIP
Chain of purified human, His-tagged PRC2 complex (Q15022 whole entry partner): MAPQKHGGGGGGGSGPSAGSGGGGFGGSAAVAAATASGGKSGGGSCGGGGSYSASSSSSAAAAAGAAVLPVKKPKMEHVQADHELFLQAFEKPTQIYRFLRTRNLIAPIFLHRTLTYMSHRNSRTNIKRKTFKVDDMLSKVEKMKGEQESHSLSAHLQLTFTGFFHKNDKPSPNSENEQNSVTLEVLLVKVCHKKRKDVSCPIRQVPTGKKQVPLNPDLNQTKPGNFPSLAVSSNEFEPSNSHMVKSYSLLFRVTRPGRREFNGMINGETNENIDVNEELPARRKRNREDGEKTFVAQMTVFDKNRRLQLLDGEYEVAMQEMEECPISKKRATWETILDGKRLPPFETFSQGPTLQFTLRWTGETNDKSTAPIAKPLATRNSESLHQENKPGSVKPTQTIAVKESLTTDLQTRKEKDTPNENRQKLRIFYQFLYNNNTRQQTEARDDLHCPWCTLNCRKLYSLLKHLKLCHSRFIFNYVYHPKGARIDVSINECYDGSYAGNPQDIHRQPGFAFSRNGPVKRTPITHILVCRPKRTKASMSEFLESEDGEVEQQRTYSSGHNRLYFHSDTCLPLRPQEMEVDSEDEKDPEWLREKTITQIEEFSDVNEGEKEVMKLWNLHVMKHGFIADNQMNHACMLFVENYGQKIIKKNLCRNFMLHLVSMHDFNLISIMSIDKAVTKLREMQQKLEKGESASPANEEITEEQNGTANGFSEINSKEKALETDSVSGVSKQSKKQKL
Chain of purified human, His-tagged PRC2 complex (Q6ZN18 whole entry partner): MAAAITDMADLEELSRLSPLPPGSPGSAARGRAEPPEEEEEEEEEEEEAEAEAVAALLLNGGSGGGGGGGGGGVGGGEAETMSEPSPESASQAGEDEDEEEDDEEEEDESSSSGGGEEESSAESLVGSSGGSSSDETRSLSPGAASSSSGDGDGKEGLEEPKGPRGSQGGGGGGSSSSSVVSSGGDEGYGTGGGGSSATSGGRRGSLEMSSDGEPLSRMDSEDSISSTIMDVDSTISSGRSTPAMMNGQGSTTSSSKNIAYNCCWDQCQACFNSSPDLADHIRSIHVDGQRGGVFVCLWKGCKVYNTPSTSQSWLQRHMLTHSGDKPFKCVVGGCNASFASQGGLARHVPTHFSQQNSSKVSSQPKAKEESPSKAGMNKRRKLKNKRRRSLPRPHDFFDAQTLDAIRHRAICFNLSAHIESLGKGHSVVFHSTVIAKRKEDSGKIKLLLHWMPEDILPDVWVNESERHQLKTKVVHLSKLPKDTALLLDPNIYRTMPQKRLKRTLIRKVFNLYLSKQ
Chain of purified human, His-tagged PRC2 complex (Q09028 whole entry partner): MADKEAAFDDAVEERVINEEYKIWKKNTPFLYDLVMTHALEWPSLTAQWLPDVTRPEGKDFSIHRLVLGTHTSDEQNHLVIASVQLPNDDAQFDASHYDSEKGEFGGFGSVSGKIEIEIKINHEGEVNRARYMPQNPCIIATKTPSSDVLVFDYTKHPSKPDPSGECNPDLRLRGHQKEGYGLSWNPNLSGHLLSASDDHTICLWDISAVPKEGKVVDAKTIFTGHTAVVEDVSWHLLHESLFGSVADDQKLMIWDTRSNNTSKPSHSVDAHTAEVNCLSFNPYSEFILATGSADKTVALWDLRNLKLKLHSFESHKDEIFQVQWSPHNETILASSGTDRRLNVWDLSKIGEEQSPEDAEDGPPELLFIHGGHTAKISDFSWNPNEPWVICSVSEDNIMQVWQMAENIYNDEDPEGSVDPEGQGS

Compound	IC50 [nM]
N#Cc1cn2c(NCc3c(F)ccc4c3CCO4)ncc(-c3ccc(C(=O)O)cc3)c2n1 [Example 183, 4-(2-cyano-5-(((5-fluoro-2,3-dihydrobenzofuran-4-yl)methyl)amino)imidazo[1,2-c]pyrimidin-8-yl)benzoic acid]	< 100
Cc1cc(S(=O)(=O)C(F)(F)F)ccc1-c1cnc(NCc2c(F)ccc3c2CCO3)n2cc(C#N)nc12 [Example 184, 5-(((5-fluoro-2,3-dihydrobenzofuran-4-yl)methyl)amino)-8-(2-methyl-4-((trifluoromethyl)sulfonyl)phenyl)imidazo[1,2-c]pyrimidine-2-carbonitrile]	100 to 500
CNCc1ccc(-c2cnc(NCc3c(F)ccc4c3CCO4)n3cc(C#N)nc23)cc1 [Example 185, 5-(((5-fluoro-2,3-dihydrobenzofuran-4-yl)methyl)amino)-8-(4-((methylamino)methyl)phenyl)imidazo[1,2-c]pyrimidine-2-carbonitrile]	< 100
CNC(=O)c1ccc(-c2cnc(NCc3c(F)ccc4c3CCO4)n3cc(C#N)nc23)cc1 [Example 186, 4-(2-cyano-5-(((5-fluoro-2,3-dihydrobenzofuran-4-yl)methyl)amino)imidazo[1,2-c]pyrimidin-8-yl)-N-methylbenzamide]	< 100
N#Cc1cn2c(NCc3c(F)ccc4c3CCO4)ncc(-c3ccccc3C#N)c2n1 [Example 187, 8-(2-cyanophenyl)-5-(((5-fluoro-2,3-dihydrobenzofuran-4-yl)methyl)amino)imidazo[1,2-c]pyrimidine-2-carbonitrile]	< 100
N#Cc1cc(-c2cnc(NCc3c(F)ccc4c3CCO4)n3cc(C#N)nc23)ccn1 [Example 188, 8-(2-cyanopyridin-4-yl)-5-(((5-fluoro-2,3-dihydrobenzofuran-4-yl)methyl)amino)imidazo[1,2-c]pyrimidine-2-carbonitrile]	100 to 500
CN(C)CCOc1ccc(-c2cnc(NCc3c(F)ccc4c3CCO4)n3cc(C#N)nc23)cc1 [Example 189, 8-(4-(2-(dimethylamino)ethoxy)phenyl)-5-(((5-fluoro-2,3-dihydrobenzofuran-4-yl)methyl)amino)imidazo[1,2-c]pyrimidine-2-carbonitrile]	100 to 500
N#Cc1cn2c(NCc3c(F)ccc4c3CCO4)ncc(-c3ccc(-c4nnn[nH]4)cc3)c2n1 [Example 190, 8-(4-(1H-tetrazol-5-yl)phenyl)-5-(((5-fluoro-2,3-dihydrobenzofuran-4-yl)methyl)amino)imidazo[1,2-c]pyrimidine-2-carbonitrile]	< 100
COCCOc1ncc(-c2cnc(NCc3c(F)ccc4c3CCO4)n3cc(C#N)nc23)cn1 [Example 191, 5-(((5-fluoro-2,3-dihydrobenzofuran-4-yl)methyl)amino)-8-(2-(2-methoxyethoxy)pyrimidin-5-yl)imidazo[1,2-c]pyrimidine-2-carbonitrile]	100 to 500
Cc1ccc(-c2cnc(NCc3c(F)ccc4c3CCO4)n3cc(C#N)nc23)c(C)c1 [Example 192, 8-(2,4-dimethylphenyl)-5-(((5-fluoro-2,3-dihydrobenzofuran-4-yl)methyl)amino)imidazo[1,2-c]pyrimidine-2-carbonitrile]	> 500
N#Cc1cn2c(NCc3c(F)ccc4c3CCO4)ncc(-c3ccnn3C3CC3)c2n1 [Example 193, 8-(1-cyclopropyl-1H-pyrazol-5-yl)-5-(((5-fluoro-2,3-dihydrobenzofuran-4-yl)methyl)amino)imidazo[1,2-c]pyrimidine-2-carbonitrile]	< 100
Cn1nccc(-c2cnc(NCc3c(F)ccc4c3CCO4)n3cc(C#N)nc23)c1=O [Example 194, 5-(((5-fluoro-2,3-dihydrobenzofuran-4-yl)methyl)amino)-8-(2-methyl-3-oxo-2,3-dihydropyridazin-4-yl)imidazo[1,2-c]pyrimidine-2-carbonitrile]	100 to 500
Cc1cc(CN(C)C)ncc1-c1cnc(NCc2c(F)ccc3c2CCO3)n2cc(C#N)nc12 [Example 195, 8-(6-((dimethylamino)methyl)-4-methylpyridin-3-yl)-5-(((5-fluoro-2,3-dihydrobenzofuran-4-yl)methyl)amino)imidazo[1,2-c]pyrimidine-2-carbonitrile]	< 100
CNCc1ccc(-c2cnc(NCc3c(F)ccc4c3CCO4)n3cc(C#N)nc23)c(C)c1 [Example 196, 5-(((5-fluoro-2,3-dihydrobenzofuran-4-yl)methyl)amino)-8-(2-methyl-4-((methylamino)methyl)phenyl)imidazo[1,2-c]pyrimidine-2-carbonitrile]	100 to 500
CNCc1ccc(-c2cnc(NCc3c(F)ccc4c3CCO4)n3cc(C#N)nc23)cc1F [Example 197, 5-(((5-fluoro-2,3-dihydrobenzofuran-4-yl)methyl)amino)-8-(3-fluoro-4-((methylamino)methyl)phenyl)imidazo[1,2-c]pyrimidine-2-carbonitrile]	< 100
CN(C)Cc1ccc(-c2cnc(NCc3c(F)ccc4c3CCO4)n3cc(C#N)nc23)c(C#N)c1 [Example 198, 8-(2-cyano-4-((dimethylamino)methyl)phenyl)-5-(((5-fluoro-2,3-dihydrobenzofuran-4-yl)methyl)amino)imidazo[1,2-c]pyrimidine-2-carbonitrile]	< 100
CC(c1ccc(-c2cnc(NCc3c(F)ccc4c3CCO4)n3cc(C#N)nc23)cc1)N(C)C (stereo not drawn) [Example 199, 8-(4-(1-(dimethylamino)ethyl)phenyl)-5-(((5-fluoro-2,3-dihydrobenzofuran-4-yl)methyl)amino)imidazo[1,2-c]pyrimidine-2-carbonitrile]	< 100
Cc1cc(-c2cnc(NCc3c(F)ccc4c3CCO4)n3cc(C#N)nc23)ccc1CN(C)C [Example 200, 8-(4-((dimethylamino)methyl)-3-methylphenyl)-5-(((5-fluoro-2,3-dihydrobenzofuran-4-yl)methyl)amino)imidazo[1,2-c]pyrimidine-2-carbonitrile]	100 to 500
CN(C)Cc1ccc(-c2cnc(NCc3c(F)ccc4c3CCO4)n3cc(C#N)nc23)cc1C#N [Example 201, 8-(3-cyano-4-((dimethylamino)methyl)phenyl)-5-(((5-fluoro-2,3-dihydrobenzofuran-4-yl)methyl)amino)imidazo[1,2-c]pyrimidine-2-carbonitrile]	< 100
[2H]C([2H])([2H])N(Cc1ccc(-c2cnc(NCc3c(F)ccc4c3CCO4)n3cc(C#N)nc23)c(C)c1)C([2H])([2H])[2H] [Example 202, 8-(4-((bis(methyl-d3)amino)methyl)-2-methylphenyl)-5-(((5-fluoro-2,3-dihydrobenzofuran-4-yl)methyl)amino)imidazo[1,2-c]pyrimidine-2-carbonitrile]	< 100
N#Cc1cn2c(NCc3c(F)ccc4c3CCO4)ncc(-c3ccc4c(c3)CCNC4)c2n1 [Example 203, 5-(((5-fluoro-2,3-dihydrobenzofuran-4-yl)methyl)amino)-8-(1,2,3,4-tetrahydroisoquinolin-6-yl)imidazo[1,2-c]pyrimidine-2-carbonitrile]	100 to 500
N#Cc1cn2c(NCc3c(F)ccc4c3CCO4)ncc(-c3ccc(C4CCCN4)cc3)c2n1 (stereo not drawn) [Example 204, 5-(((5-fluoro-2,3-dihydrobenzofuran-4-yl)methyl)amino)-8-(4-(pyrrolidin-2-yl)phenyl)imidazo[1,2-c]pyrimidine-2-carbonitrile]	100 to 500
N#Cc1cn2c(NCc3c(F)ccc4c3CCO4)ncc(-c3ccc4c(c3)CNC4)c2n1 [Example 205, 5-(((5-fluoro-2,3-dihydrobenzofuran-4-yl)methyl)amino)-8-(isoindolin-5-yl)imidazo[1,2-c]pyrimidine-2-carbonitrile]	100 to 500
COCCOc1ccc(-c2cnc(NCc3c(F)ccc4c3CCO4)n3cc(C#N)nc23)c(C)c1 [Example 206, 5-(((5-fluoro-2,3-dihydrobenzofuran-4-yl)methyl)amino)-8-(4-(2-methoxyethoxy)-2-methylphenyl)imidazo[1,2-c]pyrimidine-2-carbonitrile]	100 to 500
Cc1cc(CN(C)C)ccc1-c1cnc(NCc2c(F)ccc3c2C(O)CO3)n2cc(C#N)nc12 (stereo not drawn) [Example 207, 8-(4-((dimethylamino)methyl)-2-methylphenyl)-5-(((5-fluoro-3-hydroxy-2,3-dihydrobenzofuran-4-yl)methyl)amino)imidazo[1,2-c]pyrimidine-2-carbonitrile]	< 100
CNC(=O)c1cc(-c2cnc(NCc3c(F)ccc4c3CCO4)n3cc(C#N)nc23)n(C)n1 [Example 208, 5-(2-cyano-5-(((5-fluoro-2,3-dihydrobenzofuran-4-yl)methyl)amino)imidazo[1,2-c]pyrimidin-8-yl)-N,1-dimethyl-1H-pyrazole-3-carboxamide]	< 100
CN(C)Cc1cc(-c2cnc(NCc3c(F)ccc4c3CCO4)n3cc(C#N)nc23)n(C)n1 [Example 210, 8-(3-((dimethylamino)methyl)-1-methyl-1H-pyrazol-5-yl)-5-(((5-fluoro-2,3-dihydrobenzofuran-4-yl)methyl)amino)imidazo[1,2-c]pyrimidine-2-carbonitrile]	< 100
CNCc1cc(-c2cnc(NCc3c(F)ccc4c3CCO4)n3cc(C#N)nc23)n(C)n1 [Example 211, 5-(((5-fluoro-2,3-dihydrobenzofuran-4-yl)methyl)amino)-8-(1-methyl-3-((methylamino)methyl)-1H-pyrazol-5-yl)imidazo[1,2-c]pyrimidine-2-carbonitrile]	< 100
Cn1nc(C#N)cc1-c1cnc(NCc2c(F)ccc3c2CCO3)n2cc(C#N)nc12 [Example 212, 8-(3-cyano-1-methyl-1H-pyrazol-5-yl)-5-(((5-fluoro-2,3-dihydrobenzofuran-4-yl)methyl)amino)imidazo[1,2-c]pyrimidine-2-carbonitrile]	< 100
N#Cc1cn2c(NCc3c(F)ccc4c3CCO4)ncc(-c3ccc(C(=O)O)nc3)c2n1 [Example 215, 5-(2-cyano-5-(((5-fluoro-2,3-dihydrobenzofuran-4-yl)methyl)amino)imidazo[1,2-c]pyrimidin-8-yl)picolinic Acid]	< 100
